Test results: the NIST ThermoML archive (doi:10.1016/j.fluid.2012.10.024)

Experiment: xn = mol fraction of the nth substance listed
Conditions: 101 kPa, Liquid, Vibrating tube method

OCc1ccccn1 [α-picolyl alcohol] + O
mass density [kg/m3]
Conditions | 293.15 K | 298.15 K | 303.15 K | 308.15 K | 313.15 K | 318.15 K
x1 = 0.05 | 1033.4 | 1031.7 | 1029.2 | 1027.6 | 1024.4 | 1021.6
x1 = 0.15 | 1077.3 | 1074.4 | 1071 | 1067.6 | 1064.5 | 1061.1
x1 = 0.2 | 1088.5 | 1085 | 1080.9 | 1076.8 | 1073.1 | 1069.3
x1 = 0.25 | 1098.1 | 1094 | 1089.6 | 1085.5 | 1081.6 | 1077.8
x1 = 0.3 | 1106.3 | 1102.9 | 1098.9 | 1095.1 | 1091.5 | 1087.9
x1 = 0.35 | 1112 | 1107.9 | 1103.4 | 1099.3 | 1095.4 | 1091.4
x1 = 0.4 | 1116 | 1111.7 | 1106.7 | 1102.3 | 1098.2 | 1094.5
x1 = 0.45 | 1119.8 | 1116.2 | 1111.9 | 1107.4 | 1103.6 | 1099.8
x1 = 0.5 | 1122.4 | 1118.9 | 1114.7 | 1110.8 | 1107 | 1103.2
x1 = 0.55 | 1124.4 | 1120.7 | 1116.3 | 1112.2 | 1108.3 | 1104.5
x1 = 0.6 | 1125.7 | 1122.1 | 1117.9 | 1113.9 | 1110 | 1106.3
x1 = 0.65 | 1127.5 | 1123.9 | 1119.8 | 1115.9 | 1112.1 | 1108.4
x1 = 0.7 | 1128.4 | 1124.8 | 1120.7 | 1116.9 | 1113.1 | 1109.5
x1 = 0.75 | 1129.3 | 1125.8 | 1121.7 | 1117.7 | 1114.1 | 1110.4
x1 = 0.8 | 1130.2 | 1126.7 | 1122.6 | 1118.7 | 1115 | 1111.2
x1 = 0.9 | 1131.5 | 1127.9 | 1123.9 | 1119.8 | 1116.1 | 1112.4
x1 = 0.95 | 1131.9 | 1128.3 | 1124.3 | 1120.3 | 1116.6 | 1112.9
x1 = 1 | 1132.3 | 1128.8 | 1124.7 | 1120.7 | 1116.9 | 1113.3

OCc1cccnc1 [β-picolyl alcohol] + O
mass density [kg/m3]
Conditions | 293.15 K | 298.15 K | 303.15 K | 308.15 K | 313.15 K | 318.15 K
x1 = 0.05 | 1032.8 | 1031.1 | 1028.7 | 1026.3 | 1024.1 | 1021.8
x1 = 0.1 | 1056.5 | 1054 | 1051.1 | 1048.2 | 1045.5 | 1042.8
x1 = 0.15 | 1074.5 | 1071.9 | 1068.7 | 1065.5 | 1062.5 | 1059.5
x1 = 0.2 | 1089.7 | 1086.6 | 1083.2 | 1079.8 | 1076.6 | 1073.3
x1 = 0.25 | 1098 | 1095 | 1091.4 | 1088 | 1084.7 | 1081.4
x1 = 0.3 | 1106.6 | 1103.4 | 1099.7 | 1096.2 | 1092.8 | 1089.5
x1 = 0.35 | 1111.4 | 1108.1 | 1104.4 | 1100.8 | 1097.4 | 1094
x1 = 0.4 | 1117 | 1113.7 | 1109.9 | 1106.3 | 1103 | 1099.4
x1 = 0.45 | 1120.5 | 1117.2 | 1113.5 | 1109.7 | 1106.4 | 1102.9
x1 = 0.5 | 1123.5 | 1120.3 | 1116.5 | 1112.8 | 1109.4 | 1106
x1 = 0.55 | 1125.9 | 1122.4 | 1118.6 | 1114.9 | 1111.6 | 1108.2
x1 = 0.6 | 1128 | 1124.7 | 1120.8 | 1117.3 | 1113.8 | 1110.4
x1 = 0.65 | 1129.7 | 1126.4 | 1122.5 | 1118.9 | 1115.5 | 1112.1
x1 = 0.7 | 1131.1 | 1127.8 | 1123.9 | 1120.3 | 1116.9 | 1113.5
x1 = 0.75 | 1132.3 | 1129 | 1125.2 | 1121.6 | 1118.1 | 1114.7
x1 = 0.8 | 1133.5 | 1130.1 | 1126.3 | 1122.7 | 1119.3 | 1115.9
x1 = 0.85 | 1134.5 | 1131.2 | 1127.4 | 1123.7 | 1120.3 | 1116.9
x1 = 0.9 | 1135.2 | 1131.8 | 1128.1 | 1124.5 | 1121.1 | 1117.7
x1 = 0.95 | 1136.1 | 1132.7 | 1128.9 | 1125.3 | 1122 | 1118.6
x1 = 1 | 1136.8 | 1133.5 | 1129.6 | 1125.9 | 1122.6 | 1119.3
